Assays:
Assay in all cases: relative viability (nuclei count vs DMSO), 5 days (fraction); higher = more cells survive
[1] = compound: Cc1ccc(F)c(NC(=O)Nc2ccc(-c3cccc4[nH]nc(N)c34)cc2)c1 [Linifanib]
Procedure, shortened: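 MetaXpress counted nuclei in 4× images of lung cancer cell lines that had been fixed, permeabilised and Hoechst-stained in one step. Before that, cells in 1536-well plates were kept overnight at 37 °C, pinned with five √10-spaced library-drug doses on vehicle-anchored plates, and cultured 5 days without medium change. Viability takes treated-well nuclei over vehicle-well nuclei and uses the median across plates. Plates were accepted only at control CV below 25% and at least one doubling.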

[2] = compound: Cc1ccc(F)c(NC(=O)Nc2ccc(-c3cccc4[nH]nc(N)c34)cc2)c1 [Linifanib] + Cc1cc(Nc2cc(N3CCN(C)CC3)nc(Sc3ccc(NC(=O)C4CC4)cc3)n2)n[nH]1 [Tozasertib] (partner 0.1 µM)
Procedure, shortened: (§1)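 Medians of duplicate plates are given as relative viability. That measure is the nuclei count in treated wells divided by the count in vehicle wells. Counts were taken on 4× images of lung cancer cell lines in 1536-well plates, 5 days after pin-tool dosing the day after seeding with one drug alone or a fixed anchor-drug dose plus five library-drug doses (not always all listed) in √10 steps.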

[3] = compound: Cc1ccc(F)c(NC(=O)Nc2ccc(-c3cccc4[nH]nc(N)c34)cc2)c1 [Linifanib] + N=C(N)NC(=N)NCCc1ccccc1 [Phenformin] (partner 250 µM)
Procedure, shortened: as §1

[4] = compound: Cc1ccc(F)c(NC(=O)Nc2ccc(-c3cccc4[nH]nc(N)c34)cc2)c1 [Linifanib] + COc1cccc2cc(-c3nc([C@H]4CC[C@H](C(=O)O)CC4)n4ncnc(N)c34)[nH]c12 [OSI-027] (partner 0.5 µM)
Procedure, shortened: as §1

[5] = compound: Cc1ccc(F)c(NC(=O)Nc2ccc(-c3cccc4[nH]nc(N)c34)cc2)c1 [Linifanib] + COc1cc2c(Oc3ccc(NC(=O)C4(C(=O)Nc5ccc(F)cc5)CC4)cc3F)ccnc2cc1OCCCN1CCOCC1 [Foretinib] (partner 0.25 µM)
Procedure, shortened: as §1

[6] = compound: Cc1ccc(F)c(NC(=O)Nc2ccc(-c3cccc4[nH]nc(N)c34)cc2)c1 [Linifanib] + CCNC(=O)c1noc(-c2cc(C(C)C)c(O)cc2O)c1-c1ccc(CN2CCOCC2)cc1 [Luminespib] (partner 0.01 µM)
Procedure, shortened: as §1

[7] = compound: Cc1ccc(F)c(NC(=O)Nc2ccc(-c3cccc4[nH]nc(N)c34)cc2)c1 [Linifanib] + Cc1nc(Nc2ncc(C(=O)Nc3c(C)cccc3Cl)s2)cc(N2CCN(CCO)CC2)n1 [Dasatinib] (partner 0.075 µM)
Procedure, shortened: as §1

[8] = compound: Cc1ccc(F)c(NC(=O)Nc2ccc(-c3cccc4[nH]nc(N)c34)cc2)c1 [Linifanib] + CC(=O)c1c(C)c2cnc(Nc3ccc(N4CCNCC4)cn3)nc2n(C2CCCC2)c1=O [Palbociclib] (partner 0.5 µM)
Procedure, shortened: as §1

[9] = compound: Cc1ccc(F)c(NC(=O)Nc2ccc(-c3cccc4[nH]nc(N)c34)cc2)c1 [Linifanib] + O=C(c1cc(Cc2n[nH]c(=O)c3ccccc23)ccc1F)N1CCN(C(=O)C2CC2)CC1 [Olaparib] (partner 8 µM)
Procedure, shortened: as §1

[10] = compound: Cc1ccc(F)c(NC(=O)Nc2ccc(-c3cccc4[nH]nc(N)c34)cc2)c1 [Linifanib] + Nc1ncn([C@H]2C[C@H](O)[C@@H](CO)O2)c(=O)n1 [Decitabine] (partner 2 µM)
Procedure, shortened: as §1

[11] = compound: Cc1ccc(F)c(NC(=O)Nc2ccc(-c3cccc4[nH]nc(N)c34)cc2)c1 [Linifanib] + CC(=O)Nc1cccc(-n2c(=O)n(C3CC3)c(=O)c3c(Nc4ccc(I)cc4F)n(C)c(=O)c(C)c32)c1 [Trametinib] (partner 0.02 µM)
Procedure, shortened: as §1

[12] = compound: Cc1ccc(F)c(NC(=O)Nc2ccc(-c3cccc4[nH]nc(N)c34)cc2)c1 [Linifanib] + Nc1nc2[nH]cc(CCc3ccc(C(=O)N[C@@H](CCC(=O)O)C(=O)O)cc3)c2c(=O)[nH]1 [Pemetrexed] (partner 0.2 µM)
Procedure, shortened: as §1

[13] = compound: Cc1ccc(F)c(NC(=O)Nc2ccc(-c3cccc4[nH]nc(N)c34)cc2)c1 [Linifanib] + NC(=O)Nc1cc(-c2cccc(F)c2)sc1C(=O)N[C@H]1CCCNC1 [AZD7762] (partner 0.2 µM)
Procedure, shortened: as §1

[14] = compound: Cc1ccc(F)c(NC(=O)Nc2ccc(-c3cccc4[nH]nc(N)c34)cc2)c1 [Linifanib] + O=C(CCCCCCC(=O)Nc1ccccc1)NO [Vorinostat] (partner 1 µM)
Procedure, shortened: as §1

[15] = compound: Cc1ccc(F)c(NC(=O)Nc2ccc(-c3cccc4[nH]nc(N)c34)cc2)c1 [Linifanib] + CC1(C)CCC(c2ccc(Cl)cc2)=C(CN2CCN(c3ccc(C(=O)NS(=O)(=O)c4ccc(N[C@H](CCN5CCOCC5)CSc5ccccc5)c(S(=O)(=O)C(F)(F)F)c4)cc3)CC2)C1 [Navitoclax] (partner 0.5 µM)
Procedure, shortened: as §1

[16] = compound: Cc1ccc(F)c(NC(=O)Nc2ccc(-c3cccc4[nH]nc(N)c34)cc2)c1 [Linifanib] + Cc1nc(NC(=O)N2CCC[C@H]2C(N)=O)sc1-c1ccnc(C(C)(C)C(F)(F)F)c1 [Alpelisib] (partner 2 µM)
Procedure, shortened: as §1

[17] = compound: Cc1ccc(F)c(NC(=O)Nc2ccc(-c3cccc4[nH]nc(N)c34)cc2)c1 [Linifanib] + C[C@@H](Oc1cc(-c2cnn(C3CCNCC3)c2)cnc1N)c1c(Cl)ccc(F)c1Cl [Crizotinib] (partner 1 µM)
Procedure, shortened: as §1

[18] = compound: Cc1ccc(F)c(NC(=O)Nc2ccc(-c3cccc4[nH]nc(N)c34)cc2)c1 [Linifanib] + CC(C)C[C@H](NC(=O)[C@H](Cc1ccccc1)NC(=O)c1cnccn1)B(O)O [Bortezomib] (partner 0.002 µM)
Procedure, shortened: as §1

[19] = compound: Cc1ccc(F)c(NC(=O)Nc2ccc(-c3cccc4[nH]nc(N)c34)cc2)c1 [Linifanib] + CS(=O)(=O)CCNCc1ccc(-c2ccc3ncnc(Nc4ccc(OCc5cccc(F)c5)c(Cl)c4)c3c2)o1 [Lapatinib] (partner 2 µM)
Procedure, shortened: as §1

[20] = compound: Cc1ccc(F)c(NC(=O)Nc2ccc(-c3cccc4[nH]nc(N)c34)cc2)c1 [Linifanib] + CS(=O)(=O)N1CCN(Cc2cc3nc(-c4cccc5[nH]ncc45)nc(N4CCOCC4)c3s2)CC1 [Pictilisib] (partner 1 µM)
Procedure, shortened: as §1

[21] = compound: Cc1ccc(F)c(NC(=O)Nc2ccc(-c3cccc4[nH]nc(N)c34)cc2)c1 [Linifanib] + C[C@]1(O)C[C@@H](c2nc(-c3ccc4ccc(-c5ccccc5)nc4c3)c3c(N)nccn32)C1 [Linsitinib] (partner 1 µM)
Procedure, shortened: as §1

NCI-H1623 gave a relative viability ([1]; 0.03162 µM) of 0.918, a relative viability ([1]; 0.1 µM) of 0.891 and a relative viability ([1]; 0.3162 µM) of 1.04. The relative viability ([2]; first compound 0.03162 µM) was 0.427, the relative viability ([2]; first compound 0.1 µM) was 0.434 and the relative viability ([2]; first compound 0.3162 µM) was 0.417. For the same cell line, the relative viability ([3]; first compound 0.03162 µM) was 0.524, the relative viability ([3]; first compound 0.1 µM) was 0.601 and the relative viability ([3]; first compound 0.3162 µM) was 0.601. For the same cell line, the relative viability ([4]; first compound 0.03162 µM) was 0.437, the relative viability ([4]; first compound 0.1 µM) was 0.43 and the relative viability ([4]; first compound 0.3162 µM) was 0.421. It also gave a relative viability ([5]; first compound 0.03162 µM) of 0.848, a relative viability ([5]; first compound 0.1 µM) of 0.929 and a relative viability ([5]; first compound 0.3162 µM) of 0.877. For the same cell line, the relative viability ([6]; first compound 0.03162 µM) was 0.49, the relative viability ([6]; first compound 0.1 µM) was 0.493 and the relative viability ([6]; first compound 0.3162 µM) was 0.471. It also gave a relative viability ([7]; first compound 0.03162 µM) of 0.463, a relative viability ([7]; first compound 0.1 µM) of 0.608 and a relative viability ([7]; first compound 0.3162 µM) of 0.46.

Cell Line NCI-H1648 has a relative viability ([1]; 0.03162 µM) of 0.847, a relative viability ([1]; 0.1 µM) of 0.688 and a relative viability ([1]; 0.3162 µM) of 1.08. For the same cell line, the relative viability ([8]; first compound 0.03162 µM) was 0.234, the relative viability ([8]; first compound 0.3162 µM) was 0.269 and the relative viability ([2]; first compound 0.03162 µM) was 0.433. The relative viability ([2]; first compound 0.1 µM) was 0.441, the relative viability ([2]; first compound 0.3162 µM) was 0.422 and the relative viability ([9]; first compound 0.03162 µM) was 0.847. The relative viability ([9]; first compound 0.3162 µM) was 1.11, the relative viability ([10]; first compound 0.03162 µM) was 0.5 and the relative viability ([10]; first compound 0.3162 µM) was 0.45. The relative viability ([4]; first compound 0.03162 µM) was 0.26, the relative viability ([4]; first compound 0.1 µM) was 0.229 and the relative viability ([4]; first compound 0.3162 µM) was 0.263. For the same cell line, the relative viability ([11]; first compound 0.03162 µM) was 0.469, the relative viability ([11]; first compound 0.3162 µM) was 0.461 and the relative viability ([12]; first compound 0.03162 µM) was 0.716. The relative viability ([12]; first compound 0.3162 µM) was 0.654, the relative viability ([13]; first compound 0.03162 µM) was 0.755 and the relative viability ([13]; first compound 0.3162 µM) was 0.509. It also gave a relative viability ([14]; first compound 0.03162 µM) of 0.491 and a relative viability ([14]; first compound 0.3162 µM) of 0.412.

Cell Line NCI-H1703 has a relative viability ([1]; 0.03162 µM) of 0.219, a relative viability ([1]; 0.1 µM) of 0.524 and a relative viability ([1]; 0.3162 µM) of 0.213. For the same cell line, the relative viability ([15]; first compound 0.03162 µM) was 0.277, the relative viability ([15]; first compound 0.1 µM) was 0.398 and the relative viability ([15]; first compound 0.3162 µM) was 0.257. The relative viability ([16]; first compound 0.03162 µM) was 0.205, the relative viability ([16]; first compound 0.1 µM) was 0.293 and the relative viability ([16]; first compound 0.3162 µM) was 0.158. The relative viability ([17]; first compound 0.1 µM) was 0.46, the relative viability ([17]; first compound 0.3162 µM) was 0.215 and the relative viability ([18]; first compound 0.03162 µM) was 0.175. For the same cell line, the relative viability ([18]; first compound 0.1 µM) was 0.243, the relative viability ([18]; first compound 0.3162 µM) was 0.154 and the relative viability ([9]; first compound 0.03162 µM) was 0.151. It also gave a relative viability ([9]; first compound 0.1 µM) of 0.269, a relative viability ([9]; first compound 0.3162 µM) of 0.125 and a relative viability ([19]; first compound 0.1 µM) of 0.438. For the same cell line, the relative viability ([19]; first compound 0.3162 µM) was 0.267, the relative viability ([20]; first compound 0.03162 µM) was 0.223 and the relative viability ([20]; first compound 0.1 µM) was 0.211. It also gave a relative viability ([20]; first compound 0.3162 µM) of 0.242, a relative viability ([21]; first compound 0.03162 µM) of 0.141 and a relative viability ([21]; first compound 0.1 µM) of 0.27. The relative viability ([21]; first compound 0.3162 µM) was 0.129, the relative viability ([5]; first compound 0.1 µM) was 0.345 and the relative viability ([5]; first compound 0.3162 µM) was 0.294. For the same cell line, the relative viability ([13]; first compound 0.1 µM) was 0.147 and the relative viability ([13]; first compound 0.3162 µM) was 0.118.
